Here are results for six compounds from patent US9283166B2, “Modulation of melanogenesis by modification of tyrosinase by palmitoylation” (ELC Management LLC, priority 2012, dated 2016).

Assay [1] concerns Reconstructed human skin models (Asian type). As to the kind of experiment: Melanin content in reconstructed human skin model. Format: cell-based. The conditions noted are these: 25 μM, 17 days, vs. DMSO. On the procedure: (§1) NHEM were treated with indicated concentrations of 2-BP for 48 hours. Melanin content (closed bar) and cell number (open bar) were measured. Values are the average of three determinations±SE. *p<0.05 vs. DMSO. Macroscopic views of cell pellet were taken by digital camera (FIG. 3A). Reconstructed human skin models (Asian type) were incubated with 25 μM 2-BP for 17 days. Eumelanin (EM) and pheomelanin (PM) contents were determined and calculated by following formula. EM=PTCA*25, PM=4−AHP*9. Values are the average of three determinations±SE.*p<0.05 vs. DMSO. Macroscopic views of a human skin model after 17 days were taken by digital camera (FIG. 3B).

The test system of assay [2] is Tyrosinase mRNA. As to the kind of experiment: Tyrosinase mRNA by real time quantitative PCR in NHEM. Format: cell-based, human. Conditions: 6 or 24 hours. How it is done: (§2) NHEM were cultured with 2-BP for 6 or 24 hours. Tyrosinase mRNA levels were analyzed by real time quantitative PCR. The results shown are the average of three determinations±SE.*p<0.05 vs. DMSO (FIG. 4A). NHEM were incubated with 5 μM 2-BP for 24 hours. Glycosidase digestion treatment by endo H and WB analysis on mature and immature form of tyrosinase were conducted by WB (FIG. 4B).

The subject of assay [3] is tyrosinase. Kind of assay: Total tyrosinase protein in NHEM by Western-blot. Format: cell-based, human. The conditions noted are these: 24 hours, various concentrations, vs. DMSO, normalized by tubulin. How it is done:
(§3) Normal human epidermal melanocytes (NHEM) were incubated with 2-bromopalmitate (2-BP) for 24 hours, and total tyrosinase was determined by Western-blot (WB) using the mouse monoclonal anti-tyrosinase IgG antibody T311 (1:120 dilution). Total tyrosinase protein level was normalized by tubulin. Palmitoylated tyrosinase was evaluated by acyl-RAC and WB. The results shown in FIGS. 2A and 2B, are the average of three determinations SE. *p<0.05 vs. DMSO.

The subject of assay [4] is tyrosinase. Kind of assay: Ubiquitination of tyrosinase in NHEM (IP and WB). Format: cell-based, human. Conditions: 5 μM, 24 hours. How it is done: NHEM were treated with 5 μM 2-BP for 24 hours. Equal protein amounts of cell lysate were used for IP by tyrosinase, and the ubiquitinated (UB) level of tyrosinase was analyzed by WB using anti-UB antibody.
Assay [5] concerns tyrosinase. Kind of assay: Palmitoylated tyrosinase in NHEM by acyl-RAC and WB. Format: cell-based, human. Conditions: 24 hours, vs. DMSO. How it is done: as §3
For assay [6], the system named is tyrosinase. As to the kind of experiment: Glycosylation of tyrosinase (endo H digestion and WB) in NHEM. Format: cell-based, human. The conditions noted are these: 5 μM, 24 hours. How it is done: as §2
Assay [7] concerns NHEM. As to the kind of experiment: Melanin content in NHEM. Format: cell-based, human. Conditions: 48 hours, various concentrations, vs. DMSO. How it is done:
as §1

For assay [8], the system named is tyrosinase. As to the kind of experiment: Degradation of tyrosinase in cycloheximide-treated NHEM (WB). Format: cell-based, human. The conditions noted are these: 4 hours. On the procedure: NHEM were treated with 1 μg/ml cycloheximide, protein synthesis inhibitor, and with (▪) or without (⋄) 10 μM 2-BP for 4 hours. Tyrosinase levels were analyzed by WB using the mouse monoclonal anti-tyrosinase IgG antibody T311 (1:120 dilution). The band intensities of tyrosinase were normalized by the band intensities of Glyceraldehyde 3-phosphate dehydrogenase (GAPDH) as internal control for each condition. The results shown are the average of three determinations±SE.*p<0.05 vs. DMSO (FIGS. 5A and 5B).

Assay [9] has as its target T1, Palmitoyl:protein thioesterase (PPT1) (Homo sapiens, UniProt P50897).
T1 sequence (P50897 28-306): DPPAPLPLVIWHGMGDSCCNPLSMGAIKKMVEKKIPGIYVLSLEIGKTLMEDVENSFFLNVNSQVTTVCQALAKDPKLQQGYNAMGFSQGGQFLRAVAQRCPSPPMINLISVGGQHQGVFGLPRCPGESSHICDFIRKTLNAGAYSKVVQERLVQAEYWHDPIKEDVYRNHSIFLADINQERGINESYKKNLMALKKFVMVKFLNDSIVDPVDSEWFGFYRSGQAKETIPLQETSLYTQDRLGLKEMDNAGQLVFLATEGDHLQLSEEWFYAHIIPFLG
Conditions: cited from earlier work; for PPT1 inhibitory activity: result in words.

Assay [10] has as its system NHEM (Asian). Kind of assay: Melanin synthesis in NHEM with PP2 or KA, with or without 2-BP. Format: cell-based, human. Conditions: 120 hours. On the procedure:
NHEM (Asian) were incubated for 120 hours in the presence of PP2, with or without 2-BP. […] Mean±S.E. (N=3)*p<0.05, vs. control. Kojic Acid (KA) was used as a positive control.

Regarding `CCCCCCCCCCCCCCC(Br)C(=O)O` (stereo not drawn) [2-BP, 2-bromopalmitate], the “total melanin: eumelanin (EM) and pheomelanin (PM) content of the tissue” value in [1] is listed as “statistically significant increase”. Also, the “tyrosinase mRNA expression” value in assay [2] was “decrease”. Also, the “total amount of tyrosinase protein per cell” value in [3] is listed as “statistically significant increase”. Moreover, the ubiquitination of tyrosinase entry in assay [4] is reported as “no effect”. In addition, the “amount of palmitoylated tyrosinase” value in assay [5] is recorded as “decreased”. Also, the glycosylation of tyrosinase entry in [6] is “no effect”. Besides, the “melanin content per cell” value in assay [7] was “statistically significant increase”. Further, the degradation of tyrosinase entry in assay [8] (10 μM with 1 μg/ml cycloheximide) is reported as “suppresses the degradation of tyrosinase”.

Consider AcGDap(Palm)GGR7, for which, in assay [9], the PPT1 inhibitory activity entry is listed as “strong PPT1 inhibitors”.

As for NBD-αAGDap(Pal)VKIKK [CS38], the “inhibitor potency relative to Dap1” value in [9] (PPT1 inhibition, compared with Dap1) is 3 fold. Besides, the IC50 in assay [9] (PPT1 inhibition) was 2 µM.

As for `C[C@@H]1C[C@@H]([C@H](O)CC2CC(=O)NC(=O)C2)C(=O)[C@@H](C)C1` [cycloheximide], the tyrosinase levels result in [8] (1 μg/ml cycloheximide) is reported as “decreased”.

Regarding `O=c1cc(CO)occ1O` [Kojic acid, Kojic Acid], the melanin synthesis result in assay [10] (2-BP-treated cells) and in [10] (cells not treated with 2-BP) was “mildly inhibited melanin synthesis” each time.

Turning to GGC(Pal) VKIKK [CS8], in [9], the PPT1 inhibitory activity entry was “comparable inhibitory activity to CS38”.

In general, IC50 refers to the concentration at which inhibition is half-maximal.
